Laboratory results: patent publication EP3409671B1, “ISOTHIAZOLE DERIVATIVES AS GPR120 AGONISTS FOR THE TREATMENT OF TYPE II DIABETES” (Janssen Pharmaceutica NV, priority 2014, dated 2015)

Tested on: C57b1/6J Mice
Assay: GPR120 C57bl6 Mouse IPGTT
Format: in vivo
Design: C57 IPGTT 10mg/kg: unit not given here
Settings: for C57 IPGTT 3mg/kg: 3mg/kg dosed 30 minutes prior to glucose IP 1.5g/kg; for C57 IPGTT 10mg/kg: 10mg/kg dosed 30 minutes prior to glucose IP 1.5g/kg
Method: Male, C57b1/6J Mice were ordered in at 8 weeks of age from Jackson Labs. Individual mice weighed anywhere in the range of 25-30 grams on study day. The mice were fasted, with removal of food occurring at 7am on the morning of the study. Animals were moved into the room at 10:00am, to give them time to acclimate. Glucose (insulin syringes) was drawn up either the night before or the morning of the study. Glucose was dosed (IP) at 1.5g/kg at 7.5ml/kg (20% glucose straight TEKNOVA, 250ml sterile bottle w/ catalogue number G0525). Test compounds were kept spinning and were only drawn into the syringes prior to study commencement. Animals were bled via tail snip to determine basal glucose levels prior to dosing of treatments. An Ascensia BREEZE Blood Glucose Monitoring System by Bayer (using unique 10-test disks) was used for determining glucose levels. The bleeds started at approximately 12:45pm and dosing started, at 1-minute intervals, immediately after. All groups were dosed 30 minutes prior to glucose administration at a dose volume of 10ml/kg (the dose volume was calculated separately for each individual animal). Thirty minutes after the first dose animals were bled again for a second baseline, or T=0, and immediately dosed with glucose via an i.p. injection. The exact dose volume for glucose was also calculated separately for each individual animal. Glucose measurements were taken at -30min prior to compound dose, at t=0 (immediately prior to glucose dose), and at 15, 30, 45, 60, 90min post glucose dose.
Glucose values were entered into an Excel sheet and graphed in GraphPad Prism. The following were calculated from Prism: Change from -30 to 0 BSLN Glucose, Raw Glucose AUC -30 to 90min, Delta Glucose AUC -30 to 90min, Raw Glucose AUC 0 to 90min, Delta Glucose AUC 0 to 90min.
Representative compounds of the present disclosure were tested according to the procedures as described in Biological Example 4, above with results as listed in Table 3, below. […] Where a compound was tested more than once, each result is listed individually. Table 3: GPR120 C57bl6 Mouse IPGTT OGTT Results

| SMILES | C57 IPGTT 30mg/kg (30mg/kg dosed 30 minutes prior to glucose IP 1.5g/kg) | C57 IPGTT 3mg/kg | C57 IPGTT 10mg/kg |
| --- | --- | --- | --- |
| CCc1ccc(-c2nsc(C(F)(F)F)c2COc2c(F)cc(CCC(=O)O)cc2F)cc1 [Cpd 70, 3-(4-[[3-(4-ethylphenyl)-5-(trifluoromethyl)-1,2-thiazol-4-yl]methoxy]-3,5-difluorophenyl)propanoic acid] | -88 | – | – |
| O=C(O)CCc1cc(F)c(OCc2c(C3CCCC3)nsc2C(F)(F)F)c(F)c1 [Cpd 71, 3-(4-[[3-cyclopentyl-5-(trifluoromethyl)-1,2-thiazol-4-yl]methoxy]-3,5-difluorophenyl)propanoic acid] | – | -14 | – |
| O=C(O)CCc1cc(F)c(OCc2c(-c3ccc(Cl)cc3)nsc2C(F)(F)F)c(F)c1 [Cpd 79, 3-(4-[[3-(4-chlorophenyl)-5-(trifluoromethyl)-1,2-thiazol-4-yl]methoxy]-3,5-difluorophenyl)propanoic acid] | – | – | -60 |
| CCc1ccc(-c2snc(Cl)c2COc2ccc(CCC(=O)O)c(C)c2C)cc1 [Cpd 85, 3-(4-[[3-chloro-5-(4-ethylphenyl)-1,2-thiazol-4-yl]methoxy]-2,3-dimethylphenyl)propanoic acid] | – | -29 | -48 |
| OCCCc1cc(F)c(OCc2c(-c3ccc(Cl)cc3)nsc2C(F)(F)F)c(F)c1 [Cpd 100, 3-(4-[[3-(4-chlorophenyl)-5-(trifluoromethyl)-1,2-thiazol-4-yl]methoxy]-3,5-difluorophenyl)propan-1-ol] | – | – | -42 |
| O=C(O)CCc1ccc(OCc2c(-c3ccc(Cl)cc3)nsc2C(F)(F)F)c(F)c1F [Cpd 106, 3-(4-[[3-(4-chlorophenyl)-5-(trifluoromethyl)-1,2-thiazol-4-yl]methoxy]-2,3-difluorophenyl)propanoic acid] | – | – | -34 |
| Cc1c(CCC(=O)O)ccc(OCc2c(-c3ccc(Cl)cc3)nsc2C(F)(F)F)c1C [Cpd 142, 3-(4-((3-(4-chlorophenyl)-5-(trifluoromethyl)isothiazol-4-yl)methoxy)-2,3-dimethylphenyl)propanoic acid] | – | -34 | -61 |
